Laboratory results taken from patent publication US9095524B2, “Customized compositions and uses thereof” (Bond University Ltd., priority 2011, dated 2015).

System: HMSCs
Test: Calcium deposition (osteogenic differentiation) with purmorphamine
Type: cell-based, human
Details: 2 μM purmorphamine added directly into differentiation media, hMSCs on polystyrene culture plate (PS)

## c1ccc2c(Oc3nc(Nc4ccc(N5CCOCC5)cc4)c4ncn(C5CCCCC5)c4n3)cccc2c1 [purmorphamine]
  calcium deposition: significant increase in calcium deposition
